From US7696244B2, “Compounds having activity in increasing ion transport by mutant-CFTR and uses thereof” (The Regents of the University of California, priority 2003, dated 2010)

Tests used:
human ΔF508-CFTR = target: T1, human ΔF508-CFTR (Homo sapiens, UniProt P13569, DEL508-508); test: Fluorescence (YFP-H148Q/I152L) I− influx assay of ΔF508-CFTR potentiator activity in FRT cells; format: cell-based; settings: for Kd: FRT cells, 27° C. rescue, forskolin 20 μM, read-out: Kd for activation of ΔF508-CFTR from the fluorescence assay
T1 construct: expressed in transfected cells; host or cells: Fischer rat thyroid (FRT) epithelial cells
T1 sequence (P13569 with tags, fused parts or gaps DEL508-508): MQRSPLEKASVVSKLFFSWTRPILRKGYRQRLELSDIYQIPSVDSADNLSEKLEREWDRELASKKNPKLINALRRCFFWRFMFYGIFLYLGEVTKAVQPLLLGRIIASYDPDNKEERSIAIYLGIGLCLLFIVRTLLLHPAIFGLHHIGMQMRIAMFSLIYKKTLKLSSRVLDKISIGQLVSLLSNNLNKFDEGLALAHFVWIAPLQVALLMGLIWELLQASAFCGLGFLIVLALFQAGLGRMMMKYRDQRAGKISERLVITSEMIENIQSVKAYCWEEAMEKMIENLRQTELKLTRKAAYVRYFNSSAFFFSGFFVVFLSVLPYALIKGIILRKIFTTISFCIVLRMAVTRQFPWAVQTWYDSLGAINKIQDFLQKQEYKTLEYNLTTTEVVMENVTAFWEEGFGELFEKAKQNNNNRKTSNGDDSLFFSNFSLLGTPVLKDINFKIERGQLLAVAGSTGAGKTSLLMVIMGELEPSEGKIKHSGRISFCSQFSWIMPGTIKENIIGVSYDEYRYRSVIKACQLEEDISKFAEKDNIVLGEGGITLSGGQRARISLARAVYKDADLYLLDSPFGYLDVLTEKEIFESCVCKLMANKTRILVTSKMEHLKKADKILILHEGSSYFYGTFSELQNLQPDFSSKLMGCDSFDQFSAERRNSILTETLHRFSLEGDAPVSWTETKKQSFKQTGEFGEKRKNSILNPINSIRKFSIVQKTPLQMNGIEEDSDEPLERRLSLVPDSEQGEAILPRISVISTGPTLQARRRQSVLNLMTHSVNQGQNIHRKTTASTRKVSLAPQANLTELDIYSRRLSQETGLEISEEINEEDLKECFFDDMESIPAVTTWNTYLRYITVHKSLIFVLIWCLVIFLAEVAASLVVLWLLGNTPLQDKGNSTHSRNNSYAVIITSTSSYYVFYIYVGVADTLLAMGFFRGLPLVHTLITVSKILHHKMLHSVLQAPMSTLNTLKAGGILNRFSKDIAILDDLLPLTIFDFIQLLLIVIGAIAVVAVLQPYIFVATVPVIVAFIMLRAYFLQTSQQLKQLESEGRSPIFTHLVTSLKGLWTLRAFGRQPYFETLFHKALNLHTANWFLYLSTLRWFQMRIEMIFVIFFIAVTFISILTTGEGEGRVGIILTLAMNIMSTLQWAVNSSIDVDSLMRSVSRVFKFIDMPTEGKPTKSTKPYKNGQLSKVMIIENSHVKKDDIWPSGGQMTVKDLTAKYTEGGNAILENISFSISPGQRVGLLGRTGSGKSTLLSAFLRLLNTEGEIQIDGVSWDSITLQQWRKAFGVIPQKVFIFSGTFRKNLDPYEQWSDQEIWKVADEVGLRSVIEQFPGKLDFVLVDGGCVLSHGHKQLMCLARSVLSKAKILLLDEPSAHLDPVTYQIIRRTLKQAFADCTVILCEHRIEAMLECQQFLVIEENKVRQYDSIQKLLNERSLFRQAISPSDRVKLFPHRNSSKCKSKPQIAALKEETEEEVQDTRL
Description: (§1) Clonal populations of Fischer rat thyroid (FRT) epithelial cells stably co-expressing human ΔF508-CFTR and the high-sensitivity halide-sensing green fluorescent analog YFP-H148Q/I152L (Galietta et al., A.S. (2001) FEBS Lett. 499, 220-224) were generated by liposome transfection and limiting dilution with Zeocin/G418 selection. More than 100 clones were evaluated for high fluorescence and ΔF508-CFTR plasma membrane targeting after growth at 27° C. for 24 hours. For screening, cells were cultured on plastic in Coon's modified F12 medium supplemented with 10% fetal bovine serum, 2 mM L-glutamnine, 100 U/ml penicillin, and 100 μg/ml streptomycin, and plated on black 96-well microplates (Corning-Costar 3904) at 30,000 cells/well. For short-circuit measurements cells were cultured on Snapwell permeable supports (Corning-Costar) at 500,000 cells/insert. Some measurements were done using stably transfected FRT cells expressing YFP-H148Q and wildtype- or G551D-CFTR (Galietta et al., (2001) J. Biol. Chem. 276, 19723-19728). Patch clamp experiments were done on ΔF508-CFTR-expressing FRT cells plated in 35-mm Petri dishes.
For assay of ΔF508-CFTR potentiator activity the incubator (27° C., 90% humidity, 5% CO2/95% air) was loaded with forty-to-sixty 96-well plates containing FRT cells. After an 18-24 hour incubation plates were washed 3 times with PBS (300 μl/wash) leaving 50 μl PBS. 10 μl of PBS containing 120 μM forskolin was added, and after 5 min test compounds (0.6 μl of 0.25 mM DMSO solution) were added to each well to give 2.5 μM final-compound concentrations. After 15 min, 96-well plates were transferred to a plate reader for fluorescence assay. Each well was assayed individually for I^− influx by recording fluorescence continuously (200 ms per point) for 2 s (baseline) and then for 12 s after rapid (<1 s) addition of 160 μL of isosmolar PBS in which 137 mM Cl^− was replaced by I^−.I^− influx rates were computed from initial fluorescence versus time-curve slopes (determined by 3rd order polynomial regression) after normalization for total fluorescence (background subtracted initial fluorescence).
The high-throughput screen was designed to identify compounds that activated ΔF508-CFTR when expressed at the cell plasma membrane. FRT epithelial cells co-expressing ΔF508-CFTR and a high sensitivity green fluorescent protein-based halide indicator were incubated at 27° C. for 24 h to permit ΔF508-CFTR plasma membrane targeting (FIG. 1A). After washing, forskolin (20 μM) and test compounds (2.5 μM) were added to individual wells of 96-well plates. The I^− influx assay was carried out ˜15 min later by measurement of the time course of decreasing YFP fluorescence after creation of an inwardly-directed I^− gradient. A high concentration of forskolin was used to identify ΔF508-CFTR potentiators that may interact directly with ΔF508-CFTR rather than alter cAMP concentration. Since activation of CFTR requires cAMP stimulation, forskolin, an enhancer of cAMP, was added to the in vitro models in order to mimic the cellular cAMP stimulation.
The strong potentiators were subjected to secondary analysis to select a subset for further analysis. None of the strong potentiators stimulated I^− influx in the fluorescence assay using FRT null cells (expressing YFP-H148Q/[…] alone) or in ΔF508-CFTR expressing cells in the absence of forskolin. The increased I^− influx for each potentiator was blocked by the thiazolidinone CFTR inhibitor CFTRinh-172 (19). […] Several of these compounds are shown in FIG. 6, along with data as to the activity of these compounds.

cellular cAMP content = test: Cellular cAMP content in FRT cells (BIOTRAK enzymatic immunoassay); format: cell-based, rat
Description: (§2) cAMP activity was measured using the BIOTRAK enzymatic immunoassay (Amersham) on FRT cell lysates after incubation with the compound of interest for 10 min without or with 0.5 μM forskolin. Phosphatase activity was determined on cell homogenates using a non-radioactive assay kit (Promega) as described previously (Galietta et al., (2001) J. Biol. Chem. 276, 19723-19728).
(§3) The compounds shown in FIGS. 2A and 3A were assayed for cAMP stimulation and phosphatase inhibition. Cellular cAMP content was measured in FRT cells in the presence of a low forskolin concentration (0.5 μM) with or without test compounds. […] Maximal forskolin (20 μM) gave 1350±17 finol/well. The ΔF508 potentiators at 5 μM gave no increase in cellular cAMP content, except for ΔF508act-04 and ΔF508act-06, which gave modest cAMP elevations (212±17 and 281±37 finol/well, respectively). […] The ΔF508-CFTR potentiators (25 μM, 48 h) were judged to be non-toxic to FRT cells by the dihydrorhodamine assay (Wang et al., (2000) J. Physiol. 524:637-638) and by unimpaired cell growth.

G551D-CFTR = target: T2, G551D-CFTR (Homo sapiens, UniProt P13569, G551D); test: Activation of G551D-CFTR in transfected FRT cells; format: cell-based; settings: positive control 50 μM + 20 μM forskolin
T2 construct: expressed in transfected cells; host or cells: FRT cells
T2 sequence (P13569 whole entry G551D): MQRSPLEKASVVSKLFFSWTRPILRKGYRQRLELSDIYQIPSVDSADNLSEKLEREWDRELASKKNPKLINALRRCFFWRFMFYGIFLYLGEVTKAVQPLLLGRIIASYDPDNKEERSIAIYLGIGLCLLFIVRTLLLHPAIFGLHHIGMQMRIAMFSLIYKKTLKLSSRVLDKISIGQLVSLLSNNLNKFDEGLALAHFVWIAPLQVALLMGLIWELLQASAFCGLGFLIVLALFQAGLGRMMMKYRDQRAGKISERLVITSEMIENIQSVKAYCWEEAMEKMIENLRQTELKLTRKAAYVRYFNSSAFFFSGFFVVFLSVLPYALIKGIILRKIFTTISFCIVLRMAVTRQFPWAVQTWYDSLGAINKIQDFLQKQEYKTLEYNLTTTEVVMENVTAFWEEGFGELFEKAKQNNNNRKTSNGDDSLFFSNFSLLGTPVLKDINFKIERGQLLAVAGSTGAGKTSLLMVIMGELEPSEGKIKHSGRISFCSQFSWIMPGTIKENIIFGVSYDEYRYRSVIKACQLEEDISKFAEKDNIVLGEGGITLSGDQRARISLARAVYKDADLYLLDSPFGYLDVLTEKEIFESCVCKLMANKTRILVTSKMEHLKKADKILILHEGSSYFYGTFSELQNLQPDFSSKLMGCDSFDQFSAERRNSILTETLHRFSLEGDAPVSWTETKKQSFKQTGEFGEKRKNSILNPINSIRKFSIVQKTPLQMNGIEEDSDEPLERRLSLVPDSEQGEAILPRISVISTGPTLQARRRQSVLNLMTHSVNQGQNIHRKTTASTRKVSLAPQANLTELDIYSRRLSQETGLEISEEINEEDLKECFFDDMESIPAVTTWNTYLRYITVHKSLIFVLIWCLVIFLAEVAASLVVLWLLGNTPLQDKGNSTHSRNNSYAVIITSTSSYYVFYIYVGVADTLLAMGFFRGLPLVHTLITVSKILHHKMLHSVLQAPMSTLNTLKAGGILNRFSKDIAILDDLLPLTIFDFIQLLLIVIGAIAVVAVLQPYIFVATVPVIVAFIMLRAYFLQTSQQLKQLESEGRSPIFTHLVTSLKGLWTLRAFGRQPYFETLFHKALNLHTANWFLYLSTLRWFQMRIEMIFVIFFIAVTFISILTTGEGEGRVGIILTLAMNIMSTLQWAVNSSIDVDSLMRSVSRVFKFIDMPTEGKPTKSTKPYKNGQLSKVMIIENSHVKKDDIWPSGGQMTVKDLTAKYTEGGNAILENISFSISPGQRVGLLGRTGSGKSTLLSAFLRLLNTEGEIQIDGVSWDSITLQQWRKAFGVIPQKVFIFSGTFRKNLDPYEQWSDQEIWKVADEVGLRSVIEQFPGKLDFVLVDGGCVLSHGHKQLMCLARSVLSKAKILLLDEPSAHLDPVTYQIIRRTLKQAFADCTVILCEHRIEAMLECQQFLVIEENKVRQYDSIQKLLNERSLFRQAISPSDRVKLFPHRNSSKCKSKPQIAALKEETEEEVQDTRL
Description: as §1, with “For screening, cells were cultured on plastic in Coon's modified F12 medium supplemented with 10% fetal bovine serum, 2 mM L-glutamnine, 100 U/ml penicillin, and 100 μg/ml streptomycin, and plated on black 96-well microplates (Corning-Costar 3904) at 30,000 cells/well.” left out

[1] = test system: human bronchial epithelial cells; test: Short-circuit current in human bronchial epithelial cells; format: cell-based; settings: S.E., n=3-5
Description: Using chamber experiments were performed 7-9 days after plating ΔF508-CFTR expressing FRT cells on Snapwell inserts. The basolateral solution contained (in mM): 130 NaCl, 2.7 KCl, 1.5 KH2PO4, 1 CaCl2, 0.5 MgCl2, 10 glucose, 10 Na-Hepes (pH 7.3). In the apical bathing solution 65 mM NaCl was replaced by Na gluconate, and CaCl2 was increased to 2 mM. Solutions were bubbled with air and maintained at 37° C. The basolateral membrane was permeabilized with 250 μg/ml amphotericin B. For human bronchial epithelial cells, apical and basolateral chambers contained 126 mM NaCl, 0.38 mM KH2PO4, 2.1 mM K2HPO, 1 mM MgSO4, 1 mM CaCl2, 24 mM NaHCO3, and 10 mM glucose (basolateral membrane not permeabilized). The hemichambers were connected to a DVC-1000 voltage clamp (World Precision Instruments) via Ag/AgCl electrodes and 1 M KCl agar bridges for recording short-circuit current
The mean increase in short-circuit current (Isc) was 1.2±0.1 μA/cm^2 in the human cells (S.E., n=25). In five sets of measurements on the human bronchial cells, the percentage increase in Isc after compound versus forskolin alone was 174±28 (genistein); percentages for ΔF508act-01 through ΔF508act-06 were (S.E., n=3-5): 174±34, 131±35, 40±11, 51±17, 107±42, and 104±35, respectively.

phosphatase activity = test: Phosphatase activity assay on cell homogenates; format: biochemical
Description: as §2, §3

wildtype CFTR = target: T3, wildtype CFTR (Homo sapiens, UniProt P13569); test: Activation of wildtype CFTR in transfected FRT cells; format: cell-based; settings: in the presence of forskolin 50 nM
T3 construct: expressed in transfected cells; host or cells: FRT cells
T3 sequence (P13569 whole entry): as the sequence (P13569 whole entry G551D) above, with D551G counted along it
Description: as §1
The six ΔF508-CFTR potentiators shown in FIG. 2A were tested for activation of wildtype and G551D-CFTR in transfected FRT cells. […] Kd values for activation of wildtype CFTR by ΔF508act-01 through ΔF508act-06 were (in μM): 0.18±0.02, 1.3±0.2, 2.2±0.3, 0.02±0.005, 0.06±0.01 and 0.05±0.01, respectively. These potencies are quite different from those for ΔF508-CFTR activation.

[2] = compound 5 μM, forskolin 0.5 μM, control 129±7

Row | Compound | percentage increase in Isc after compound versus forskolin alone [1] | Kd (human ΔF508-CFTR) | Kd (wildtype CFTR) | further results
1 | O=C(O)c1ccc(/C=C2\SC(=S)N(c3cccc(C(F)(F)F)c3)C2=O)cc1 [CFTRinh-172, reference compound] | – | – | – | effect on potentiator-increased I− influx (human ΔF508-CFTR): blocked
2 | C=C[C@@]1(C)CC(=O)[C@]2(O)[C@@]3(C)[C@@H](O)CCC(C)(C)[C@@H]3[C@H](O)[C@H](OC(C)=O)[C@@]2(C)O1 [forskolin, reference compound] | – | – | – | cAMP content (cellular cAMP content; maximal forskolin 20 μM): 1350±17 finol/well
3 | O=c1c(-c2ccc(O)cc2)coc2cc(O)cc(O)c12 [genistein, reference compound] | 174±28% | – | – | G551D-CFTR activation (G551D-CFTR): strong activation
4 | C=C1[C@@H](O)[C@@H]2O[C@]3(CC[C@H](/C=C/[C@@H](C)[C@@H]4CC(C)=C[C@@]5(O[C@H](C[C@@](C)(O)C(=O)O)CC[C@H]5O)O4)O3)CC[C@H]2O[C@@H]1[C@@H](O)C[C@H](C)[C@H]1O[C@@]2(CCCCO2)CC[C@H]1C [okadaic acid] | – | – | – | inhibition of phosphatase activity (phosphatase activity): > 90%; phosphatase activity (phosphatase activity; control 703±69): 56±15 pmol free phosphate/μg protein
5 | COc1ccc(-n2c(C)cc(C=C3C(=O)NC(=O)N(Cc4ccco4)C3=O)c2C)cc1 [ΔF508act-01, 1-Furan-2-yhnethyl-5-[1-(4-methoxy-phenyl)-2,5-dimethyl-1H-pyrrol-3-ylmethylene]-pyrimidine-2,4,6-trione] | 174±34% | 1300 ± 100 nM | – | –
6 | NC(=O)c1c(NC(=O)c2ccccc2Cl)sc2c1CCCC2 [ΔF508act-02, 2-(2-Chloro-benzoylamino)-4,5,6,7-tetrahydro-benzo[b]thiophene-3-carboxylic acid amide] | 131±35% | 180 ± 30 nM | 1300 ± 200 nM | –
7 | Cc1cc(Br)c2[nH]c3c(c2c1)CCCC3=O [ΔF508act-03, 8-Bromo-6-methyl-2,3,4,9-tetrahydro-carbazol-1-one] | 40±11% | 700 ± 40 nM | 2200 ± 300 nM | –
8 | CC(C)(C)c1ccc(Oc2c(N)ccc3c2C(=O)c2ccccc2C3=O)cc1 [ΔF508act-04, 2-Amino-1-(4-tert-butyl-phenoxy)-anthraquinone] | 51±17% | 870 ± 100 nM | 20 ± 5 nM | cAMP content (cellular cAMP content; [2]): 212±17 finol/well
9 | COC(=O)C1=C(C)NC(C)=C(C(=O)OC)C1c1ccc(C(C)C)cc1 [ΔF508act-05, 4-(4-Isopropyl-phenyl)-2,6-dimethyl-1,4-dihydro-pyridine-3,5-dicarboxylic acid dimethyl ester] | 107±42% | 100 ± 10 nM | 60 ± 10 nM | –
10 | NC(=O)c1oc2ccccc2c1NC(=O)c1ccccc1 [ΔF508act-06, 3-Benzoylamino-benzofuran-2-carboxylic acid amide] | 104±35% | 650 ± 80 nM | 50 ± 10 nM | cAMP content (cellular cAMP content; [2]): 281±37 finol/well
